Experimental data taken from US20240100170A1, “CYCLIC-AMP RESPONSE ELEMENT BINDING PROTEIN (CBP) AND/OR ADENOVIRAL E1A BINDING PROTEIN OF 300 KDA (P300) DEGRADATION COMPOUNDS AND METHODS OF USE” (CULLGEN (SHANGHAI), INC., priority 2020, published 2024).
“Also recorded” adds a separate entry of the source.

How the values were obtained:
P300 [1] = molecular target: T1, P300 (Homo sapiens, UniProt Q09472); test: P300 immunoblotting in 22RV1 subcutaneous xenograft tumors; type: in vivo, athymic nude mice; parameters: from tissue; host or cells: 22RV1 subcutaneous xenograft tumours in athymic nude mice; settings: single dose 40 mg/kg, intraperitoneally or orally, six hours after administration; FIG. 9
Description: (§1) In addition to cultured cells, athymic nude mice bearing 22RV1 subcutaneous xenograft tumors at the right flank were intraperitoneally or orally treated with 40 mg/kg bivalent compounds. Six hours after drug administration, animals were sacrificed for immunoblotting of P300 and CBP in homogenized xenograft tumor masses. […] Moreover, ICR mice were orally treated with 40 mg/kg bivalent compounds. Six hours after drug administration, animals were sacrificed for immunoblotting of CBP in homogenized lung tissues.
(§2) Athymic nude mice bearing 22RV1 subcutaneous xenograft tumors at the right flank were intraperitoneally or orally treated with selected bivalent compounds at 40 mg/kg. Six hours after drug administration, animals were sacrificed, and xenograft tumors were collected for immunoblotting of P300 and CBP.
(§3) Cultured cells or tissue chunks were washed with cold PBS once and lysed in cold RIPA buffer supplemented with protease inhibitors and phosphatase inhibitors (Beyotime Biotechnology). The solutions were then incubated at 4° C. for 30 minutes with gentle agitation to fully lyse cells. Cell lysates were centrifuged at 13,000 rpm for 10 minutes at 4° C. and pellets were discarded. Total protein concentrations in the lysates were determined by BCA assays (Beyotime Biotechnology). Cell lysates were mixed with Laemmli loading buffer to 1 X and heated at 99° C. for 5 min. Proteins were resolved on SDS-PAGE and visualized by chemiluminescence. Images were taken by a ChemiDoc MP Imaging system (Bio-Rad). Protein bands were quantitated using the accompanied software provided by Bio-Rad.
(§4) All animal experiments were performed under protocols approved by the Institutional Animal Care and Use Committee (IACUC) of Cullgen. Athymic nude mice (male, 5-weeks old) received 5 million 22RV1 cells subcutaneously inoculated at the right flank site. Twenty days following inoculation, tumors were approxmiately 500 mm^3 in size. Tumor-bearing mice were treated intraperitoneally or via oral gavage with vehicle or bivalent compounds at indicated doses. […]

P300 [2] = molecular target: T1, P300; test: P300 protein level by immunoblotting in 22RV1 cells; type: cell-based; parameters: LNCaP or 22RV1 cells that express CBP/P300 proteins were treated with GNE-781 or the bivalent compounds; endogenous in cells; host or cells: LNCaP or 22RV1 (not given); settings: various concentrations, compound vs analogue that lost cereblon binding, FIG. 7B
Description: (§5) Specific exemplary bivalent compounds were characterized in LNCaP or 22RV1 cells. LNCaP or 22RV1 cells that express CBP/P300 proteins were treated with GNE-781 or the bivalent compounds disclosed herein (P-001 to P-265) for indicated hours. Cells were collected, lysed and subject to immunoblotting using an antibody specific to P300 or CBP proteins. Tubulin or vinculin was included as the loading control. DMSO was used as the negative control.
(§6) LNCaP (clone FGC), 22RV1 and other cells were cultured at 37° C. with 5% CO 2 in RPMI 1640 Medium supplemented with 10% fetal bovine serum. Cells were authenticated using the short tandem repeat (STR) assays. Mycoplasma test results were negative.
as §3, with “Proteins were resolved on SDS-PAGE and visualized by chemiluminescence. Images were taken by a ChemiDoc MP Imaging system (Bio-Rad).” left out

CBP [3] = molecular target: T2, CBP (Homo sapiens, UniProt Q92793); test: CBP immunoblotting in 22RV1 subcutaneous xenograft tumors; type: in vivo, athymic nude mice; parameters: from tissue; host or cells: 22RV1 subcutaneous xenograft tumours in athymic nude mice; settings: single dose 40 mg/kg, intraperitoneally or orally, six hours after administration; FIG. 9
Description: as §1, §2, §3, §4

P300 [4] = molecular target: T1, P300; test: P300 protein level by immunoblotting in LNCaP cells; type: cell-based; parameters: LNCaP or 22RV1 cells that express CBP/P300 proteins were treated with GNE-781 or the bivalent compounds; endogenous in cells; host or cells: LNCaP or 22RV1 (not given); settings: for degradation of P300 in combination with pomalidomide, MG-132, Bortezomib or MLN4924: single dose, FIG. 8; for P300 protein levels: various concentrations, compound vs analogue that lost cereblon binding, FIG. 7A
Description: as §5, §6, §3

CBP [5] = molecular target: T2, CBP; test: CBP protein level by immunoblotting in LNCaP cells; type: cell-based; parameters: LNCaP or 22RV1 cells that express CBP/P300 proteins were treated with GNE-781 or the bivalent compounds; endogenous in cells; host or cells: LNCaP (clone FGC); settings: single dose, FIG. 8
Description: as §5, §6, §3

T2 sequence (Q92793 whole entry): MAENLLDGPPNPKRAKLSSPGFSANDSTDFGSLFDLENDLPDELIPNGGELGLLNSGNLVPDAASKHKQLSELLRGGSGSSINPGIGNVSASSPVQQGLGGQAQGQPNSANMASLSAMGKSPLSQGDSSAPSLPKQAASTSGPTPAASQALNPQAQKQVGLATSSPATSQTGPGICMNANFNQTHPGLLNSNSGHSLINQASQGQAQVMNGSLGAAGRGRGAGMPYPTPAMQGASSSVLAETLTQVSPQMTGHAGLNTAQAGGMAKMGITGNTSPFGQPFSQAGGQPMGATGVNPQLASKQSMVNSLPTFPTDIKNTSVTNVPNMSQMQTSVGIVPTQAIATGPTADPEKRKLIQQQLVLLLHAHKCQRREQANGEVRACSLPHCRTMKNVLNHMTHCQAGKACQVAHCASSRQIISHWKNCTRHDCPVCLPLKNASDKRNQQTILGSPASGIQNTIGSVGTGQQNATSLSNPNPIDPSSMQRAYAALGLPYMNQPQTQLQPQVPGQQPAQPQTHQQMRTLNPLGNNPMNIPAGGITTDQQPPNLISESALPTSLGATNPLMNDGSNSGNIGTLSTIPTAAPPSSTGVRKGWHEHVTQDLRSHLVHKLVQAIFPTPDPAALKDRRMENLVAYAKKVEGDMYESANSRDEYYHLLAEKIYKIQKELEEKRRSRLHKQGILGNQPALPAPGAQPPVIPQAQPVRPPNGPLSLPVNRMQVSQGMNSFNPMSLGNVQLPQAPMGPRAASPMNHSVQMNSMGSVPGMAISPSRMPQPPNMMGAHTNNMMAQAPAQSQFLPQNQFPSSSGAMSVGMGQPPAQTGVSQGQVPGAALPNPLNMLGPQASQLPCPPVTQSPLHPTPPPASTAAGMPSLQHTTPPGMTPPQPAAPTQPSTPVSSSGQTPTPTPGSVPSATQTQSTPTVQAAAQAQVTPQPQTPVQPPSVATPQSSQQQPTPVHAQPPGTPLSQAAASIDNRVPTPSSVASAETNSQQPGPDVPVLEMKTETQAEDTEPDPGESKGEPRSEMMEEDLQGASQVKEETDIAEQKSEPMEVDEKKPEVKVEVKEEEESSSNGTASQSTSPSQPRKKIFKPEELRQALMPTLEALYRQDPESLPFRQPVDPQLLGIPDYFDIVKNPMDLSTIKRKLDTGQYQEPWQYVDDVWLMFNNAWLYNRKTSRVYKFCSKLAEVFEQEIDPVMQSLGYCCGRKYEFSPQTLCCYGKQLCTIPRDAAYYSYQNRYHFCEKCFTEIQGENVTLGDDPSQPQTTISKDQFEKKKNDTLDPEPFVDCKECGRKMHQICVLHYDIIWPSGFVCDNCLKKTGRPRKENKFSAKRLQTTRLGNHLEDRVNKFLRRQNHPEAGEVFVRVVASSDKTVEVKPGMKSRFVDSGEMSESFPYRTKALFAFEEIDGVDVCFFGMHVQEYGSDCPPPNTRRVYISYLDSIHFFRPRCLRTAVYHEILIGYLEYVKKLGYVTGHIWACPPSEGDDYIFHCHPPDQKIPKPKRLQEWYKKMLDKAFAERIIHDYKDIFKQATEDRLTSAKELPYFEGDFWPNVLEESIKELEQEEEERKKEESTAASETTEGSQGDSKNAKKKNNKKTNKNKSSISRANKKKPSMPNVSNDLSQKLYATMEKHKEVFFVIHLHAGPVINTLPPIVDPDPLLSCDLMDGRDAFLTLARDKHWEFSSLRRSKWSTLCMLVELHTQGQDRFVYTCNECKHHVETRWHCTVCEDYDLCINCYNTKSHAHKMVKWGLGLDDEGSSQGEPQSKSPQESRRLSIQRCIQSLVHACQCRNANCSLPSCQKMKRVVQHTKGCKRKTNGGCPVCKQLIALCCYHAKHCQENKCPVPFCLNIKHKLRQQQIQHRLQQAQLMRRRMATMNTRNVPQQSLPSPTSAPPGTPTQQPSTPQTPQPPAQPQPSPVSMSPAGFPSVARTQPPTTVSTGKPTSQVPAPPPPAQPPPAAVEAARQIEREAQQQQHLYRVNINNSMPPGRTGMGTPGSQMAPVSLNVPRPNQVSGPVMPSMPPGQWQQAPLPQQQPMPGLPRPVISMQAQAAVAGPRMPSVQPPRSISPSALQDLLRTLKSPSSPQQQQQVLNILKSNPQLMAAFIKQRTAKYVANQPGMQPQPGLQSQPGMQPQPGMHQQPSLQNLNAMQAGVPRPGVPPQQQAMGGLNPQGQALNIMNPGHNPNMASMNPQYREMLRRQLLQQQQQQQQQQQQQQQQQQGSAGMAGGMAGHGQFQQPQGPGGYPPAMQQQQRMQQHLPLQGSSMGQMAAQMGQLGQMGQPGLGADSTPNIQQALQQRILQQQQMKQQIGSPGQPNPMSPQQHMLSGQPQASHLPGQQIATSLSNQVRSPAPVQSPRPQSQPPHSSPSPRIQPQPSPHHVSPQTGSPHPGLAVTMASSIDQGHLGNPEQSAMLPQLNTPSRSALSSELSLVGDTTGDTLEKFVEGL
T1 sequence (Q09472 whole entry): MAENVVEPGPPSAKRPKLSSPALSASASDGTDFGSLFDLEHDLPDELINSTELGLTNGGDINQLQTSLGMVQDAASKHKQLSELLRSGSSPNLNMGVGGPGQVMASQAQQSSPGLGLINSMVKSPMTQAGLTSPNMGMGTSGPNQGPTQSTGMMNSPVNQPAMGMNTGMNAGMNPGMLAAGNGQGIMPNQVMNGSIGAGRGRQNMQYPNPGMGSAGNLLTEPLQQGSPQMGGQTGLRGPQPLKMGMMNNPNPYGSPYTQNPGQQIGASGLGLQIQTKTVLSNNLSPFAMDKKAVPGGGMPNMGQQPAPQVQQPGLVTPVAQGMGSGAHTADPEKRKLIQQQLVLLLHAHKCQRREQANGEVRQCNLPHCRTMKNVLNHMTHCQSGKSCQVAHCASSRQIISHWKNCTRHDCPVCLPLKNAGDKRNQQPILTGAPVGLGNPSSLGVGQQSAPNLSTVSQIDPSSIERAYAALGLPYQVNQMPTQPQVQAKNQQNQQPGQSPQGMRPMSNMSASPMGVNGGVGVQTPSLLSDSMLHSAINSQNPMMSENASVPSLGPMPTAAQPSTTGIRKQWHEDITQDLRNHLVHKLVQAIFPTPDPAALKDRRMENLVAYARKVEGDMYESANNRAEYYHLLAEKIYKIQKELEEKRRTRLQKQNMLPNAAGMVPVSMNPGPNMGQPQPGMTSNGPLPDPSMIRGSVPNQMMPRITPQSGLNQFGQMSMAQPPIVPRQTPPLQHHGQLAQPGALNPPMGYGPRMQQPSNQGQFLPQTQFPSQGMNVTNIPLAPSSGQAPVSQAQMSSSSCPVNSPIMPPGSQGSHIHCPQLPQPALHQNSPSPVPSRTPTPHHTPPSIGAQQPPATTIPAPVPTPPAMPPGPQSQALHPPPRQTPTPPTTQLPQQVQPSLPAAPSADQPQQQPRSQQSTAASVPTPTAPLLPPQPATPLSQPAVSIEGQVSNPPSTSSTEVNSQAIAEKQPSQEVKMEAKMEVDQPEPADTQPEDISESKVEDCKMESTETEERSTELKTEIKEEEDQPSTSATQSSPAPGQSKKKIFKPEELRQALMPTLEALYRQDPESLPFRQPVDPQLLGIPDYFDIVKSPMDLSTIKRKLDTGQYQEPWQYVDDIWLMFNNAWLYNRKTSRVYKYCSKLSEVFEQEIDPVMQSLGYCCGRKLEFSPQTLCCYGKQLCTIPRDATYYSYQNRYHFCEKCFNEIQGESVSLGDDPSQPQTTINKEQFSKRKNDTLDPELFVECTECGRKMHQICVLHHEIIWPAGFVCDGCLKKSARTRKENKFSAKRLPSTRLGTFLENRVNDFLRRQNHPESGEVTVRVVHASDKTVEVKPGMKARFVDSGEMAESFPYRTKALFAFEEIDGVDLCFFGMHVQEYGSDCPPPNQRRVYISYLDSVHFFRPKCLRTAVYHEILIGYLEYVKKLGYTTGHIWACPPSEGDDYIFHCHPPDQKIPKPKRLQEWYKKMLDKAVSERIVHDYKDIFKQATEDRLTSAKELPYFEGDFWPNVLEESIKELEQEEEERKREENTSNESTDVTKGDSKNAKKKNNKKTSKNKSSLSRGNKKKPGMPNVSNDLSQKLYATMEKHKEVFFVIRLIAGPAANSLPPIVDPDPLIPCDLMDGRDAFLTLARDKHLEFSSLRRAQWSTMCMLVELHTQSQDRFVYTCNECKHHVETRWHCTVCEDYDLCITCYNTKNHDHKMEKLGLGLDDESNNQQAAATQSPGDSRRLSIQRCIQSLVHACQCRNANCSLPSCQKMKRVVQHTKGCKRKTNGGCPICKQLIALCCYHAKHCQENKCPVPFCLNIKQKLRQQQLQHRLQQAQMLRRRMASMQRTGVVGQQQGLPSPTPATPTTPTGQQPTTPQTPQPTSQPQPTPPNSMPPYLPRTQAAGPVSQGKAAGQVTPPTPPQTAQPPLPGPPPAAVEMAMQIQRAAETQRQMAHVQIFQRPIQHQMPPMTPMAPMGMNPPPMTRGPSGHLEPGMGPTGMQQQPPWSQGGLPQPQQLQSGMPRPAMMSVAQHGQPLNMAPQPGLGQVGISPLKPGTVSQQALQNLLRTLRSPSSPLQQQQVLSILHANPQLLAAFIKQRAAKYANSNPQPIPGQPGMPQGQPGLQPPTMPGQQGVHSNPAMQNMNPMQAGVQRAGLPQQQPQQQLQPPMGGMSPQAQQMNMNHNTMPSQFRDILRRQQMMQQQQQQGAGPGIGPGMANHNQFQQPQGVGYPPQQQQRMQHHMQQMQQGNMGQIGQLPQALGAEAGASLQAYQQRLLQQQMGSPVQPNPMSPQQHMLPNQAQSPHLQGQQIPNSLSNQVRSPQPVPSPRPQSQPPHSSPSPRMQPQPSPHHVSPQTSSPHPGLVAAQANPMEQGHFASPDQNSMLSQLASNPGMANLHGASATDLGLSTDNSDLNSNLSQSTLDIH

| P300 protein levels in xenograft tumors (P300 [1]) | CBP protein levels in xenograft tumors (CBP [3]) | SMILES | P300 protein levels (P300 [2]) | degradation of P300 in combination with pomalidomide, MG-132, Bortezomib or MLN4924 (P300 [4]) | P300 protein levels (P300 [4]) | degradation of CBP in combination with pomalidomide, MG-132, Bortezomib or MLN4924 (CBP [5]) |
| --- | --- | --- | --- | --- | --- | --- |
| significantly reducing | significantly reducing | CC(=O)N1CCc2c(c(N3CCCc4cc(-c5cnn(C)c5)c(C(F)F)cc43)nn2C2CCN(C(=O)CCCCCNc3cccc4c3C(=O)N(C3CCC(=O)NC3=O)C4=O)CC2)C1 (stereo not shown) [P-100, 4-((6-(4-(5-acetyl-3-(7-(difluoromethyl)-6-(1-methyl-1H-pyrazol-4-yl)-3,4-dihydroquinolin-1(2H)-yl)-4,5,6,7-tetrahydro-1H-pyrazolo[4,3-c]pyridin-1-yl)piperidin-1-yl)-6-oxohexyl)amino)-2-(2,6-dioxopiperidin-3-yl)isoindoline-1,3-dione] | reduced P300 protein levels in a concentration-dependent manner | compromised; also recorded: could be neutralized | reduced P300 protein levels in a concentration-dependent manner | compromised; also recorded: could be neutralized |
| significantly reducing | significantly reducing | CNC(=O)N1CCc2c(c(N3CCCc4cc(-c5cnn(C)c5)c(C(F)F)cc43)nn2C2CCN(C(=O)CCCCCNc3cccc4c3C(=O)N(C3CCC(=O)NC3=O)C4=O)CC2)C1 (stereo not shown) [P-034, 3-(7-(difluoromethyl)-6-(1-methyl-1H-pyrazol-4-yl)-3,4-dihydroquinolin-1(2H)-yl)-1-(1-(6-((2-(2,6-dioxopiperidin-3-yl)-1,3-dioxoisoindolin-4-yl)amino)hexanoyl)piperidin-4-yl)-N-methyl-1,4,6,7-tetrahydro-5H-pyrazolo[4,3-c]pyridine-5-carboxamide] | a chemical modification that disrupted cereblon binding abolished P300 degradation | compromised; also recorded: could be neutralized | a chemical modification that disrupted cereblon binding abolished P300 degradation | compromised; also recorded: could be neutralized |
| significantly reducing | significantly reducing | CNC(=O)N1CCc2c(c(N3CCCc4cc(-c5cnn(C)c5)c(C(F)F)cc43)nn2C2CCN(C(=O)CCCCCCCNc3ccc4c(c3)C(=O)N(C3CCC(=O)NC3=O)C4=O)CC2)C1 (stereo not shown) [P-007, 3-(7-(difluoromethyl)-6-(1-methyl-1H-pyrazol-4-yl)-3,4-dihydroquinolin-1(2H)-yl)-1-(1-(8-((2-(2,6-dioxopiperidin-3-yl)-1,3-dioxoisoindolin-5-yl)amino)octanoyl)piperidin-4-yl)-N-methyl-1,4,6,7-tetrahydro-5H-pyrazolo[4,3-c]pyridine-5-carboxamide] |  | compromised; also recorded: could be neutralized |  | compromised; also recorded: could be neutralized |
